How the values were obtained:
Oryctolagus cuniculus [1] = species on record: Oryctolagus cuniculus; assay: Compound was tested for the inhibition of nitroazidobenzoyl-angiotensin II induced contraction of rabbit aortic strips; format: functional; conditions: Aorta, read-out: ED50 (the source's name)
Oryctolagus cuniculus [2] = species on record: Oryctolagus cuniculus; assay: Compound was tested for the inhibition of nitroazidobenzoyl-angiotensin II induced contraction of rabbit aortic strips; pD2 is the negative logarithm of ED50; format: functional, Aorta

Row | EC50 (Oryctolagus cuniculus [1]) | SMILES | pD2 (Oryctolagus cuniculus [2])
1 | 60.4 nM | CC[C@H](C)[C@H](NC(=O)[C@H](Cc1ccc(O)cc1)NC(=O)[C@@H](NC(=O)[C@H](CCCN=C(N)N)NC(=O)[C@H](CC(=O)O)NC(=O)c1cc(N=[N+]=[N-])ccc1[N+](=O)[O-])C(C)C)C(=O)N[C@@H](Cc1c[nH]cn1)C(=O)N1CCC[C@H]1C(=O)N[C@@H](Cc1ccccc1)C(=O)O | 7.22
2 | 3.63 nM | CC[C@H](C)[C@H](NC(=O)[C@H](Cc1ccc(O)cc1)NC(=O)[C@@H](NC(=O)[C@H](CCCNC(=N)N)NC(=O)[C@@H](N)CC(=O)O)C(C)C)C(=O)N[C@@H](Cc1cnc[nH]1)C(=O)N1CCC[C@H]1C(=O)N[C@@H](Cc1ccccc1)C(=O)O [ANGIOTENSIN II] | 8.44

— ChEMBL document CHEMBL1121859, “Photochemical inactivation of the angiotensin receptor of rabbit aorta by N alpha-(2-nitro-5-azidobenzoyl)-[1-aspartic acid,5-isoleucine]angiotensin II” (1981)
